According to US20030045679A1, “Calcineurin modulators” (priority 2001, published 2003):
Like-named read-outs stand apart in the source and are kept apart here.

Columns and labels:
[1] = Cytotoxicity of A23187 and hydrogen peroxide on stable transfectants, propidium iodide uptake by flow cytometry; details: Chinese hamster, Percent cytotoxicity, 4 μg/ml A23187
Procedure: (§1) MATERIAL AND METHODS: Cell culture and treatment conditions. Chinese hamster HA-1 fibroblasts were maintained in Eagle's minimal essential medium supplemented with 8% heat inactivated fetal bovine serum, penicillin (100 units/ml) and streptomycin (100μg/ml). Cultures were grown in a humidified incubator atmosphere of 95% air and 5% CO2 at 37 °C.
(§2) Stress analyses. Control cells and lines 7, 10, and 15 were grown to log phase and equal confluency (75%). At this time, the cells were exposed to each stress agent and cytotoxicity measured. For the oxidative stress studies, a stock solution of hydrogen peroxide (30% w/w) was diluted in phosphate-buffered saline just prior to cell exposure. At the time of treatment, the HA-1 cultures were taken from the incubator and freshly diluted-peroxide added to the culture dishes. The cells were then returned to the incubator for the appropriate times.
(§3) Stable adapt78-overexpressing, vector control and non-transfected control HA-1 cells were exposed to 4 μg/ml calcium ionophore A23187 or […] for 60 minutes (A23187) or 90 minutes (hydrogen peroxide). Cytotoxicity was then determined by propidium iodide uptake using flow cytometry as follows. After treatment, monolayers were rinsed with PBS containing 3 mM EDTA, then covered with the same for 5 minutes at room temperature before suspending cells by gentle trituration. Cytotoxicity was then measured using propidium iodide and the stained cells analyzed by flow cytometry using a Becton Dickinson FAC Scan. The ModFit analytical software program was used to quantify the percentage of cytotoxicity.
(§4) Control cells and lines 7, 10, and 15 were grown to log phase and equal confluency (75%), then treated with 4 μg/ml A23187 and separately, 5 mM hydrogen peroxide. Cytotoxicity was then assessed by propidium iodide uptake using flow cytometry. Fold protection was calculated as the percent viability of cells compared with untransfected after subtracting out background (cells treated with solvent only). The average of untransfected percent viability was arbitrarily set at 1.0.

HA-1 cells [2] = test: as above; details: n = 4
Procedure: as §1, §2, §3, §4

HA-1 cells [3] = details: stained 7 days later, cited from earlier work
HA-1 cells [4] = details: 160 μM hydrogen peroxide; cited from earlier work

Structure (SMILES) | cytotoxicity at 60 min, 4 μg/ml ([1]; Untransfected HA-1 cells) [%] | cytotoxicity at 60 min, 4 μg/ml ([1]; Vector transfected HA-1 cells) [%] | cytotoxicity at 60 min, 4 μg/ml ([1]; adapt78 overexpressing Clone 7) [%] | cytotoxicity at 60 min, 4 μg/ml ([1]; adapt78 overexpressing Clone 10) [%] | cytotoxicity at 60 min, 4 μg/ml ([1]; adapt78 overexpressing Clone 15) [%] | Fold protection +/− 1 S.D. (HA-1 cells [2]; 4 μg/ml A23187, Clone 7 vs Untransfected) | Fold protection +/− 1 S.D. (HA-1 cells [2]; 4 μg/ml A23187, Clone 10 vs Untransfected) | Fold protection +/− 1 S.D. (HA-1 cells [2]; 4 μg/ml A23187, Clone 15 vs Untransfected) | Fold protection +/− 1 S.D. (HA-1 cells [2]; 4 μg/ml A23187, Untransfected HA-1 cells (set at 1.0)) | Fold protection +/− 1 S.D. (HA-1 cells [2]; 4 μg/ml A23187, Vector transfected HA-1 cells vs Untransfected) | Fold protection +/− 1 S.D. (HA-1 cells [2]; 5 mM hydrogen peroxide, Clone 10 vs Untransfected) | Fold protection +/− 1 S.D. (HA-1 cells [2]; 5 mM hydrogen peroxide, Clone 15 vs Untransfected) | Fold protection +/− 1 S.D. (HA-1 cells [2]; 5 mM hydrogen peroxide, Untransfected HA-1 cells (set at 1.0)) | Fold protection +/− 1 S.D. (HA-1 cells [2]; 5 mM hydrogen peroxide, Vector transfected HA-1 cells vs Untransfected) | decrease in colony number compared with control (HA-1 cells [3]; 160 μM hydrogen peroxide for 5 hours) [%] | decrease in colony number compared with control (HA-1 cells [3]; 400 μM hydrogen peroxide for 5 hours) [%] | cytotoxicity using trypan blue exclusion (HA-1 cells [4])
CNc1ccc2oc(C[C@H]3O[C@@]4(CC[C@H]3C)O[C@H]([C@H](C)C(=O)c3ccc[nH]3)[C@H](C)C[C@H]4C)nc2c1C(=O)O [A23187] | 48.2 | 44 | 10.1 | 11.7 | 11.8 | 4.8 +/− 0.5 fold | 4.1 +/− 1.0 fold | 4.1 +/− 0.3 fold | 1.0 +/− 0.4 fold | 1.1 +/− 0.3 fold |  |  |  |  |  |  | 
OO [Peroxide, hydrogen peroxide] |  |  |  |  |  |  |  |  |  |  | 3.7 +/− 0.6 fold | 4.2 +/− 0.6 fold | 1.0 +/− 0.3 fold | 1.0 +/− 0.4 fold | 79.5 | 97.8 | no associated cytotoxicity was observed
